Laboratory results taken from patent publication US12383534B2, “Methods for treating cancer” (REGENTS OF THE UNIVERSITY OF MINNESOTA, priority 2021, dated 2025).

How the values were obtained:
[1] = system: p300 and CBP; conditions: in vitro and in vivo; cited from earlier work
[2] = system: CIC-DUX4 target genes ETV1, 4, and 5; assay: RT-qPCR for CIC-DUX4 target genes in NCC-CDS-X1 cells; type: cell-based, human; conditions: NCC-CDS-X1, 24 hours, highest concentration
Experimental: RNA was extracted using an RNA extraction kit (Zymo) and cDNA was made using 0.5 μg total RNA with oligo-dT primer and Verso cDNA Synthesis Kit (Thermo Scientific) following the manufacturer's instructions. qPCRs were performed by using Premix Ex Taq (Probe qPCR, Takara) or SYBR-green. Gene expression levels were normalized to that of GAPDH and analyzed with 7500 System Software using the ACT method (Applied Biosystems). RNA-seq library preparation was done with 500 ng total RNA from NCC-CDS-X1 cells treated for 4 or 24 hours with iP300w (0.3 μM) using the Swift Rapid RNA Library Kit (SwiftBioscience). 36 base paired-end sequencing was performed on an Illumina NextSeq instrument at the University of Minnesota Genomics Center.
Next, the effect of the stereoisomers on the CIC-DUX4 target genes in cells cultured with the compounds for 24 hours was analyzed.

[3] = system: wide spectrum of cancer cell lines; conditions: cited from earlier work
[4] = system: NCC-CDS-X1 cells (CIC-DUX4 sarcoma cell line); assay: Cell viability (ATP) assay in NCC-CDS-X1 cells; type: cell-based, human
Experimental: Basal media were purchased from HyClone, fetal bovine serum (FBS) was from PeakSerum (Ps-FB3, lot 293Q16), and Glutamax (Glu) and Penicillin/Streptomycin (P/S) were from GIBCO. NCC-CDS-X1 (CIC-DUX4 sarcoma cell line, a generous gift from Tadashi Kondo) cell line was cultured in RPMI with 10% FBS, Glu and P/S, Kitra-SRS (CIC-DUX4 sarcoma cell line, a generous gift from Hidetatsu Otani), 3T3, 293T and C2C12 cell lines were cultured in DMEM/10% FBS/Glu/P/S. The immortalized human myoblast LHCN-M2 cell line was cultured in proliferation medium: F10 supplemented with 20% FBS, 2-mercaptoethanol 1× (GIBCO), 10^−9 M dexamethasone (Sigma), 10 ng/mL bFGF (Peprotech), and Glu/P/S. All cells were cultured at 37° C. in a 5% CO2 atmosphere.
Cell lines were plated in a 96 well dish (1×10^5 cells/well), and the following day were treated with iP300w or its stereoisomers. ATP assays were performed using CellTiter-Glo® Luminescent Cell Viability Assay (Promega) according to the manufacturer's instructions. Luminescence was analyzed on POLARstar Optima Microplate Reader (BMG Labtech, Offenburg, Germany).
The activity of the various iP300w stereoisomers against NCC-CDS-X1 cells was evaluated. Cultures were treated with serial dilutions, ranging from 0.003 μM to 3.0 μM, for up to 96 hours. In cells treated with iP300w, a significant decrease in cell viability was evident at the lowest concentration (0.003 μM) at 48 and 96 hours (FIG. 3A). The effect was dose- and time-dependent. […] (FIG. 2B and FIG. 9).

[5] = system: CDS cell lines; conditions: screens of FDA-approved anticancer molecules; cited from earlier work
[6] = system: Kitra-SRS cells (IGF-1R); conditions: cited from earlier work

## CNC(=O)Nc1ccc2c(c1)CC[C@@]21OC(=O)N(CC(=O)N(Cc2ccc(F)cc2)[C@@H](C)C(F)(F)F)C1=O [A-485, reference compound]
[1]
  inhibition of acetylation by p300 and CBP: inhibit acetylation by p300 and CBP both in vitro and in vivo
[2]
  effect on ETV4 expression at the highest concentration: notable effect on ETV4
[3]; high MITF-expressing melanoma cell lines and NUT midline carcinoma
  efficacy against melanoma and NUT midline carcinoma: effective against high MITF-expressing melanoma cell lines
[3]; more prominently in those of hematopoietic origin
  effect on proliferation of cancer cell lines: suppress proliferation of a wide spectrum of cancer cell lines
[4]; NCC-CDS-X1, IC50 at 48 and 96 hours
  fold less potent than iP300w (from IC50 values): approximately 200 fold
[4]; NCC-CDS-X1, up to 96 hours, 0.003 to 3.0 μM
  activity on cell viability: also showed activity, but at higher concentrations

## CC(C)C[C@H](NC(=O)[C@H](Cc1ccccc1)NC(=O)c1cnccn1)B(O)O [bortezomib]
[5]
  effectiveness in vitro on CDS cell lines: some degree of effectiveness in vitro

## C[C@@H](Oc1cc(-c2cnn(C3CCNCC3)c2)cnc1N)c1c(Cl)ccc(F)c1Cl [crizotinib]
[5]
  effectiveness in vitro on CDS cell lines: some degree of effectiveness in vitro

## C[C@]1(O)C[C@@H](c2nc(-c3ccc4ccc(-c5ccccc5)nc4c3)c3c(N)nccn32)C1 [linsitinib]
[6]
  effect on cell proliferation: reduced cell proliferation
